US8221990B2, “Screening GPR12 receptor for substances having Nesfatin-1-like action, or which regulate Nesfatin-1 action” (Teijin Pharma Limited, priority 2007, dated 2012)

Assay: Amount of food intake in a mouse after intraperitoneal administration
Assay type: in vivo
Conditions: C57BL/6J male mouse, 0.25 nmol per gram of body weight, 0 to 3 hours
Experimental: A 7-week-old C57BL/6J strain male mouse (CLEA Japan, Inc.) was used as an experimental animal. After purchasing the mouse, the mouse was raised at 22° C. in cycles of the 12-hour light period from 6 a.m. to 6 p.m. and the 12-hour dark period from 6 p.m. to 6 a.m. on the next morning with free access to pelleted feed (CLEA Japan, Inc., CE-2).
A 5 nmol aliquot of Nesfatin-1M30 (Mid-segment, SEQ ID NO: 11), M30_Ag-A (SEQ ID NO: 50), or M30_MSH-A (SEQ ID NO: 51) was dissolved in each 100 μL of saline, and each of the resultant solutions was administered intraperitoneally to a C57BL/6J mouse at a dose of 0.25 nmol per gram of body weight of the mouse. In the control group, only saline (Vehicle) was administered. Each mouse (5 mice in each group) was intraperitoneally given a single injection of a sample using a tuberculin syringe with 26 G needle, immediately before the dark period (6 p.m.).
Each mouse administered was placed in an individual cage, and the amount of food intake was determined by measuring the decreased amount of the pelleted feed during the period from 0 to 3 hours after the administration of a test substance. In the mouse administered with each test sample, the amount of food intake during 3 hours after the administration (g/3 h) is shown in FIG. 6.

Nesfatin-1M30: mid-segment of Nesfatin-1, human-derived Nesfatin-1M30, SEQ ID NO: 11 (PDTGLYYDEYLKQVIDVLETDKHFREKLQK; listed as Homo sapiens)
amount of food intake during 3 hours after the administration compared with control group (Vehicle): significant decrease of the food intake
